From patent US8835632B2, “Methods to increase the photostability of dyes” (The University of North Carolina at Chapel Hill, priority 2007, dated 2014)

Experiment: Absorption and fluorescence spectra, extinction coefficient, fluorescence quantum yield
Assay type: physicochemical
Method: Absorption spectra were recorded on a Hewlett-Packard 8453 diode array UV-Vis spectrophotometer (Agilent Technologies, Inc., Santa Clara, Calif.), and fluorescence measurements were taken on a SPEX® Fluorolog 2 spectrofluorometer (HORIBA Jobin Yvon, Inc., Edison, N.J.). Melting points are not corrected. NMR spectra were obtained on a Varian Mercury 300 MHz (Varian, Inc., Palo Alto, Calif.) or on a Bruker 300 MHz DRX 300 spectrometer (Bruker Biospin Corp., Billerica, Mass.). Mass spectra were obtained on a Hewlett-Packard 1100 high-performance liquid chromatograph equipped with an 1100 mass selective detector (MS-ESI) (Agilent Technologies, Inc.).
With decreasing solvent polarity, the absorption maximum of dyes 1a-b, 2a-d shifted to longer wavelengths, and the intensity of the transition increased (Table 10, FIG. 11).
The SCRF/VSCRF predicted emission energies and the solute dipole moments before and after the vertical emission process are given in Table 16. The dipole moments of AI-BA(4) and AI-SO(4) are further decreased on the S1 surface after geometry relaxation (in MeOH solution), and then increased during the S1→S0 transition. This observation is consistent with the blue shifts of the emission bands of AI-BA(4) and AI-SO(4) with increasing solvent polarity from C6H6 to MeOH. By contrast, the dipole moment of I-SO further decreases after S1 state geometry relaxation, and then decreases during the vertical emission process. This observation also is in agreement with the red shift of the I-SO emission band with increasing solvent polarity from C6H6 to MeOH. Similarly to the absorption case, a negligible red shift (ΔEem=0.017 eV) was predicted for the emission band of I-TBA with increasing solvent polarity. A small red shift from C6H6 to DMF (with ΔEem=0.020 eV, or Δλmax=6 nm) is observed. The nearly equal emission energy observed in C6H6 and MeOH can again result in the explicit interactions between the solute and solvent molecules.

Compound: CCn1c([O-])c(/C=C/C=C/c2cc[n+]3c(c2)C(C)(C)c2ccccc2-3)c(=O)n(CC)c1=S [AI-TBA]
- Absorbance λmax (Butanol (BuOH)): 619 nm
- Extinction coefficient ε (Butanol (BuOH)): 53000
- Absorption energy Eabs Exp (C6H6): 1.816 eV
- Absorption energy Eabs Exp (MeOH): 2.153 eV
- Absorbance λmax (Methanol (MeOH)): 576 nm
- Extinction coefficient ε (Methanol (MeOH)): 38000
- Observed absorption (ε) (Table 10, BuOH): (53000)
- Observed absorption λmax (Table 10, BuOH): 619 nm
- Observed absorption (ε) (Table 10, C6H6): (135000)
- Observed absorption λmax (Table 10, C6H6): 683 nm
- Observed absorption (ε) (Table 10, CH2Cl2): (104000)
- Observed absorption λmax (Table 10, CH2Cl2): 655 nm
- Observed absorption (ε) (Table 10, CH3CN): (54000)
- Observed absorption λmax (Table 10, CH3CN): 615 nm
- Observed absorption (ε) (Table 10, DMF): (52000)
- Observed absorption λmax (Table 10, DMF): 616 nm
- Observed absorption (ε) (Table 10, DMSO): (56000)
- Observed absorption λmax (Table 10, DMSO): 607 nm
- Observed absorption (ε) (Table 10, EtOH): (46000)
- Observed absorption λmax (Table 10, EtOH): 603 nm
- Observed absorption (ε) (Table 10, MeOH): (38000)
- Observed absorption λmax (Table 10, MeOH): 576 nm
- Observed absorption (ε) (Table 10, OcOH): (97000)
- Observed absorption λmax (Table 10, OcOH): 633 nm
- Observed absorption (ε) (Table 10, i-PrOH): (50000)
- Observed absorption λmax (Table 10, i-PrOH): 618 nm
- Absorption Exp wavelength (Table 12, C6H6): 683 nm
- Absorption Exp wavelength (Table 12, MeOH): 576 nm

Compound: CC1(C)c2ccccc2-[n+]2ccc(/C(C#N)=C/C=C/C3=C(O)c4ccccc4S3(=O)=O)cc21 [AI-SO-CN]
- Absorbance λmax (Butanol (BuOH)): 619 nm
- Emission λmax (Butanol (BuOH)): 640 nm
- Extinction coefficient ε (Butanol (BuOH)): 168000
- Fluorescence quantum yield Φ (Butanol (BuOH)): 0.29
- Absorbance λmax (Methanol (MeOH)): 608 nm
- Emission λmax (Methanol (MeOH)): 624 nm
- Extinction coefficient ε (Methanol (MeOH)): 163000
- Fluorescence quantum yield Φ (Methanol (MeOH)): 0.08
- Absorbance λmax (Water-Methanol (H2O—MeOH)): 601 nm
- Emission λmax (Water-Methanol (H2O—MeOH)): 624 nm
- Extinction coefficient ε (Water-Methanol (H2O—MeOH)): 128000
- Fluorescence quantum yield Φ (Water-Methanol (H2O—MeOH)): 0.08

Compound: C[n+]1ccc(/C=C/C2=C([O-])c3ccccc3S2(=O)=O)cc1 [P-SO(2)]
- Observed absorption (ε) (Table 10, BuOH): (67000)
- Observed absorption λmax (Table 10, BuOH): 519 nm
- Observed absorption (ε) (Table 10, C6H6): (169000)
- Observed absorption λmax (Table 10, C6H6): 538 nm
- Observed absorption (ε) (Table 10, CH2Cl2): (128000)
- Observed absorption λmax (Table 10, CH2Cl2): 529 nm
- Observed absorption (ε) (Table 10, CH3CN): (89000)
- Observed absorption λmax (Table 10, CH3CN): 546 nm
- Observed absorption (ε) (Table 10, DMF): (92000)
- Observed absorption λmax (Table 10, DMF): 522 nm
- Observed absorption (ε) (Table 10, DMSO): (75000)
- Observed absorption λmax (Table 10, DMSO): 520 nm
- Observed absorption (ε) (Table 10, EtOH): (65000)
- Observed absorption λmax (Table 10, EtOH): 514 nm
- Observed absorption (ε) (Table 10, MeOH): (57000)
- Observed absorption λmax (Table 10, MeOH): 505 nm
- Observed absorption (ε) (Table 10, OcOH): (72000)
- Observed absorption λmax (Table 10, OcOH): 524 nm
- Observed absorption (ε) (Table 10, i-PrOH): (72000)
- Observed absorption λmax (Table 10, i-PrOH): 518 nm
- Observed emission (Φ) (Table 15, BuOH): 0.015
- Observed emission λmax (Table 15, BuOH): 535 nm
- Observed emission (Φ) (Table 15, C6H6): 0.004
- Observed emission λmax (Table 15, C6H6): 546 nm
- Observed emission (Φ) (Table 15, CH2Cl2): 0.01
- Observed emission λmax (Table 15, CH2Cl2): 541 nm
- Observed emission (Φ) (Table 15, CH3CN): 0.011
- Observed emission λmax (Table 15, CH3CN): 531 nm
- Observed emission (Φ) (Table 15, DMF): 0.025
- Observed emission λmax (Table 15, DMF): 534 nm
- Observed emission (Φ) (Table 15, DMSO): 0.024
- Observed emission λmax (Table 15, DMSO): 535 nm
- Observed emission (Φ) (Table 15, EtOH): 0.008
- Observed emission λmax (Table 15, EtOH): 533 nm
- Observed emission (Φ) (Table 15, MeOH): 0.005
- Observed emission λmax (Table 15, MeOH): 529 nm
- Observed emission (Φ) (Table 15, OcOH): 0.024
- Observed emission λmax (Table 15, OcOH): 536 nm
- Observed emission (Φ) (Table 15, i-PrOH): 0.014
- Observed emission λmax (Table 15, i-PrOH): 532 nm

Compound: CCn1c(O)c(/C=C/C=C(\C#N)c2cc[n+]3c(c2)C(C)(C)c2ccccc2-3)c(=O)n(CC)c1=S [AI-TBA-CN]
- Absorbance λmax (Butanol (BuOH)): 621 nm
- Emission λmax (Butanol (BuOH)): 641 nm
- Extinction coefficient ε (Butanol (BuOH)): 188000
- Fluorescence quantum yield Φ (Butanol (BuOH)): 0.33
- Absorbance λmax (Methanol (MeOH)): 606 nm
- Emission λmax (Methanol (MeOH)): 632 nm
- Extinction coefficient ε (Methanol (MeOH)): 146000
- Fluorescence quantum yield Φ (Methanol (MeOH)): 0.22
- Absorbance λmax (Water-Methanol (H2O—MeOH)): 593 nm
- Emission λmax (Water-Methanol (H2O—MeOH)): 625 nm
- Extinction coefficient ε (Water-Methanol (H2O—MeOH)): 77000
- Fluorescence quantum yield Φ (Water-Methanol (H2O—MeOH)): 0.17
